For one assay, the target named is T1, human Gcg receptor (Homo sapiens, UniProt P47871).
T1 construct: expressed in transfected cells; crude membranes
Briefly: [125I]-Glucagon binding (SPA), human Gcg receptor. The conditions noted are these: read-out: hGLcgR Ki, nM (SEM, n). In short, it runs like this:
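Crude membranes from cells expressing the receptor, prepared by hypotonic lysis in 50 mM Tris HCl pH 7.5 with protease inhibitors, homogenization and differential centrifugation, were used in a WGA-bead SPA. Binding buffer: 25 mM HEPES pH 7.4, 2.5 mM CaCl2, 1 mM MgCl2, bacitracin, Tween-20.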

The target in the next assay is T2, human GIP receptor (Homo sapiens, UniProt P48546).
T2 construct: expressed in transfected cells; crude membranes
T2 sequence (P48546 22-466): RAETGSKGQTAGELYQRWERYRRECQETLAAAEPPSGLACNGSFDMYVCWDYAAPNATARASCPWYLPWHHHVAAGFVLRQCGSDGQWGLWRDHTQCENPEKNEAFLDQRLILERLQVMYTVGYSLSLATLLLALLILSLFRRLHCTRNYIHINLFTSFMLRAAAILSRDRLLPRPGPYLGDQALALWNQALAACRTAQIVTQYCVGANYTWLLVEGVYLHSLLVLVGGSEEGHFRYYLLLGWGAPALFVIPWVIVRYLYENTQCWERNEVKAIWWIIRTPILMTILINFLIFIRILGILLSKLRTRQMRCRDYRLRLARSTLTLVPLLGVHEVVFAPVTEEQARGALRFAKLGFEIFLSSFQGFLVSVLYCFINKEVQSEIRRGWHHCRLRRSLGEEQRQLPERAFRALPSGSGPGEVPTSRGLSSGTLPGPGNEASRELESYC
Briefly: [125I]-GIP binding (SPA), human GIP receptor. The settings on record: read-out: hGIPR Ki, nM (SEM, n).

Assay [1] addresses human GLP-1 receptor (GLP-1R) (Homo sapiens, UniProt P43220). Briefly: cAMP pharmacological functional assay in presence of casein, hGLP-1R. Format: cell-based. The conditions noted are these: HEK293 cells expressing hGLP-1R, 0.1% Casein, geometric mean; read-out: hGLP1R cAMP Rel EC50 nM (SEM, n).
Assay [2] deals with T3, gastric inhibitory peptide receptor (GIPR) (Homo sapiens, UniProt P48546).
T3 sequence (P48546 22-466): T2 sequence (P48546 22-466)
Briefly: cAMP pharmacological functional assay in presence of casein, hGIPR. It is filed as cell-based. The conditions noted are these: HEK293 cells expressing hGIPR, 0.1% Casein, geometric mean; read-out: hGIPR cAMP Rel EC50 nM (SEM, n).

In assay [3] the target is T4, human GLP-1R (Homo sapiens, UniProt P43220). Briefly: [125I]-GLP-1 binding (SPA), human GLP-1 receptor. The arrangement: expressed in transfected cells; crude membranes. The conditions noted are these: read-out: hGLP1R Ki, (nM) (SEM, n). In short, it runs like this:
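Crude-membrane binding assay; one membrane prep included 1 mM MgCl2 and 25 units/ml DNAse I during lysis. Assay buffer at pH 7.4 contains 0.1% (w/v) bacitracin and 0.003% (w/v) TWEEN-20. Ki is reported as geometric mean.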

In assay [4] the target is T4, human GLP-1R. Briefly: GLP-1R CHO cell β-arrestin recruitment assay. Format: cell-based. The arrangement: host or cells: CHO-K1 PathHunter cells, assay-ready frozen. The settings on record: for EC50: CHO-K1 cells; for hGLP1R B-Arrestin2 % Top: normalized to GLP-1 maximum control. An excerpt:
Activated G-protein coupled receptors can interact with the β-arrestin family of signalling proteins. […] CHO-K1 cells expressing Pro-Link-tagged Human GLP-1R and enzyme-acceptor-tagged β-arrestin-2 may be obtained from DiscoveRx and prepared as assay-ready frozen cells. Test peptides are solubilized in DMSO and serial dilutions are perfomed using the Echo acoustic dispenser (LabCyte). Assay media is the PathHunter Cell Assay Buffer (DiscoveRx) containing 0.1% w/v hydrolyzed Casein (Sigma). […] Plates are incubated for 90 minutes in a 37′C/5% C02 incubator and 10 ul of PathHunter detection reagent is added (DiscoveRx) and plates are incubated at room temperature for 60 minutes. Luminescence signal is measured. Peptide concentration-response curves fit to a four-parameter logistic model to calculate potency as an EC50.
On the technique in general: Recruitment of arrestin is a read-out of receptor activation apart from second messengers.

Where [5] appears, read: 0.1% w/v hydrolyzed Casein, read-out: hGLP1R B-Arrestin2 Rel EC50.
The mark [6] stands for this setting: PathHunter β-arrestin-2 recruitment, 0.1% casein, read-out: hGLP1R B-Arrestin2 Rel EC50 uM (SEM, n).

This note sets out measurements from patent US12252524B2, “GIP/GLP1 co-agonist compounds” (Eli Lilly and Company, priority 2018, dated 2025).

Like-named read-outs stand apart in the source and are kept apart here. Numbered stars: 1 amine (or outer) side, 2 acyl side, 3 side chain; on linkers, the order of the positions; unused ones are H or OH. Square brackets hold non-standard residues; d marks the D form. Side chains are listed from the residue outwards. Peptide text beside a SMILES is read from it. * marks the point of attachment. C20 diacid = O=C(O)CCCCCCCCCCCCCCCCCCC(=O)*; γGlu = O=C(O)[C@H](CCC(=O)[*:2])N[*:1]; αMeL = CC(C)C[C@](C)(N)C(=O)O; Orn = NCCC[C@H](N)C(=O)O; AEEA = NCCOCCOCC(=O)O; Aib = CC(C)(N)C(=O)O

human GLP-1 receptor (GLP-1R), sequence (P43220 24-463): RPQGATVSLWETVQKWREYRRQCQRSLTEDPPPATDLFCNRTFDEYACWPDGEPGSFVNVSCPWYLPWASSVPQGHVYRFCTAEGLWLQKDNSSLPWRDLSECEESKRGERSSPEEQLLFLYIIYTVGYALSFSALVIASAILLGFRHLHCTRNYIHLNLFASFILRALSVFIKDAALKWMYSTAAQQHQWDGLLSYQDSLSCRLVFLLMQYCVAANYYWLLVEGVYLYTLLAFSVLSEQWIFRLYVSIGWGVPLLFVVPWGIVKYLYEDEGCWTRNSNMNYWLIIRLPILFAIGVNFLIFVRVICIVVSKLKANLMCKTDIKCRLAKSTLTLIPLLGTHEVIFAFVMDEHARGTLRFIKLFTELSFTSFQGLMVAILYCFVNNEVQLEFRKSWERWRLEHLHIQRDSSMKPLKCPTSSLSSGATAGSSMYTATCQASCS
T4 sequence (P43220 24-463): as above
T1 sequence (P47871 26-477): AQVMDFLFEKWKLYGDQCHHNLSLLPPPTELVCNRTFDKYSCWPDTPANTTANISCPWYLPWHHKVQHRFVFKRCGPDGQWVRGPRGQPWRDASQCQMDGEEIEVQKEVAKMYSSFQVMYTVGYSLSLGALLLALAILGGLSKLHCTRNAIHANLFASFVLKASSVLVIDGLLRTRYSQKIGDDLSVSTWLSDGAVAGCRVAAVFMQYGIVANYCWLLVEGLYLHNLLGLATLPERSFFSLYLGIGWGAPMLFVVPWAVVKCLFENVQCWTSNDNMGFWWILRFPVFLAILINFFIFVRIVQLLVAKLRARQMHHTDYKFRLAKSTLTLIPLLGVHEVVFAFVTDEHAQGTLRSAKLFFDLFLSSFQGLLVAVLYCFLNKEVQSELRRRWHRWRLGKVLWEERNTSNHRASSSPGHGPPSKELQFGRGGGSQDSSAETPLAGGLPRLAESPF

Take `CC[C@H](C)[C@H](NC(=O)[C@H](CC(C)C)NC(=O)[C@H](Cc1ccc(O)cc1)NC(=O)[C@@H](CCC(=O)O)NC(=O)[C@@H](NC(=O)[C@H](Cc1ccccc1)NC(=O)[C@H](C)NC(=O)C(C)(C)NC(=O)[C@H](CCC(N)=O)NC(=O)[C@H](C)NC(=O)[C@H](CCCCNC(=O)COCCOCCNC(=O)COCCOCCNC(=O)CC[C@H](NC(=O)CCCCCCCCCCCCCCCCCCC(=O)O)C(=O)O)NC(=O)[C@H](CCCCN)NC(=O)[C@H](CC(=O)O)NC(=O)[C@H](CC(C)C)NC(=O)[C@](C)(CC(C)C)NC(=O)[C@@H](NC(=O)[C@H](CO)NC(=O)[C@H](Cc1ccc(O)cc1)NC(=O)[C@H](CC(=O)O)NC(=O)[C@H](CO)NC(=O)[C@@H](NC(=O)[C@H](Cc1ccccc1)NC(=O)[C@@H](NC(=O)CNC(=O)[C@H](CCC(=O)O)NC(=O)C(C)(C)NC(=O)[C@H](N)Cc1ccc(O)cc1)[C@@H](C)O)[C@@H](C)O)[C@@H](C)CC)[C@@H](C)CC)C(=O)N[C@@H](CCC(=O)O)C(=O)NCC(=O)NCC(=O)N1CCC[C@H]1C(=O)N[C@@H](CO)C(=O)N[C@@H](CO)C(=O)NCC(=O)N[C@@H](C)C(=O)N1CCC[C@H]1C(=O)N1CCC[C@H]1C(=O)N1CCC[C@H]1C(=O)N[C@@H](CO)C(N)=O` [Example 356]: the values for the Ki on human Gcg receptor, at human GIP receptor and at human GLP-1R [3] were above 1010 nM, 0.35 nM and 10.3 nM, respectively. Besides, the EC50 was 0.506 nM in assay [1], 0.386 nM in assay [2], above 10.5 µM on human GLP-1R [4] (setting [5]) and above 10.5 µM on human GLP-1R [4] (setting [6]).

For the compound `CC[C@H](C)[C@H](NC(=O)[C@H](CC(C)C)NC(=O)[C@H](Cc1ccc(O)cc1)NC(=O)[C@@H](CCC(=O)O)NC(=O)[C@@H](NC(=O)[C@H](Cc1ccccc1)NC(=O)[C@H](C)NC(=O)C(C)(C)NC(=O)[C@H](CCC(N)=O)NC(=O)[C@H](C)NC(=O)[C@H](CCCCNC(=O)COCCOCCNC(=O)COCCOCCNC(=O)CC[C@H](NC(=O)CCCCCCCCCCCCCCCCCCC(=O)O)C(=O)O)NC(=O)[C@H](CCCN)NC(=O)[C@H](CC(=O)O)NC(=O)[C@H](CC(C)C)NC(=O)[C@](C)(CC(C)C)NC(=O)[C@@H](NC(=O)[C@H](CO)NC(=O)[C@H](Cc1ccc(O)cc1)NC(=O)[C@H](CC(=O)O)NC(=O)[C@H](CO)NC(=O)[C@@H](NC(=O)[C@H](Cc1ccccc1)NC(=O)[C@@H](NC(=O)CNC(=O)[C@H](CCC(=O)O)NC(=O)C(C)(C)NC(=O)[C@H](N)Cc1ccc(O)cc1)[C@@H](C)O)[C@@H](C)O)[C@@H](C)CC)C(C)C)C(=O)N[C@@H](C)C(=O)NCC(=O)NCC(=O)N1CCC[C@H]1C(=O)N[C@@H](CO)C(=O)N[C@@H](CO)C(=O)NCC(=O)N[C@@H](C)C(=O)N1CCC[C@H]1C(=O)N1CCC[C@H]1C(=O)N1CCC[C@H]1C(=O)N[C@@H](CO)C(N)=O` [Example 362] (H-[dY][Aib]EGTFTSDYSI[αMeL]LD[Orn]K([AEEA-AEEA-γGlu-C20 diacid])AQ[Aib]AFV[dE]YLIAGGPSSGAPPPS-NH2), the figures for the Ki on human Gcg receptor, at human GIP receptor and on human GLP-1R [3] were above 1050 nM, 0.337 nM and 6.95 nM, respectively. The EC50 in assay [1] is 0.365 nM; in assay [2], 0.302 nM; on human GLP-1R [4] (setting [5]), above 11 µM; at human GLP-1R [4] (setting [6]), above 11 µM.

For the compound `CC[C@H](C)[C@H](NC(=O)[C@H](CC(C)C)NC(=O)[C@H](Cc1ccc(O)cc1)NC(=O)[C@H](CCC(=O)O)NC(=O)[C@@H](NC(=O)[C@H](Cc1ccccc1)NC(=O)[C@H](CCC(=O)O)NC(=O)C(C)(C)NC(=O)[C@H](CCC(N)=O)NC(=O)[C@H](C)NC(=O)[C@H](CCCCNC(=O)COCCOCCNC(=O)COCCOCCNC(=O)CC[C@H](NC(=O)CCCCCCCCCCCCCCCCCCC(=O)O)C(=O)O)NC(=O)[C@H](CCCCN)NC(=O)[C@H](CC(=O)O)NC(=O)[C@H](CC(C)C)NC(=O)[C@](C)(CC(C)C)NC(=O)[C@@H](NC(=O)[C@H](CO)NC(=O)[C@H](Cc1ccc(O)cc1)NC(=O)[C@H](CC(=O)O)NC(=O)[C@H](CO)NC(=O)[C@@H](NC(=O)[C@H](Cc1ccccc1)NC(=O)[C@@H](NC(=O)CNC(=O)[C@H](CCC(=O)O)NC(=O)C(C)(C)NC(=O)[C@@H](N)Cc1ccccc1)[C@@H](C)O)[C@@H](C)O)[C@@H](C)CC)[C@@H](C)CC)C(=O)N[C@@H](C)C(=O)NCC(=O)NCC(=O)N1CCC[C@H]1C(=O)N[C@@H](CO)C(=O)N[C@@H](CO)C(=O)NCC(=O)N[C@@H](C)C(=O)N1CCC[C@H]1C(=O)N1CCC[C@H]1C(=O)N1CCC[C@H]1C(=O)N[C@@H](CO)C(N)=O` [Example 338] (H-F[Aib]EGTFTSDYSI[αMeL]LDKK([AEEA-AEEA-γGlu-C20 diacid])AQ[Aib]EFIEYLIAGGPSSGAPPPS-NH2), the values for the Ki on human Gcg receptor, on human GIP receptor and at human GLP-1R [3] were above 1060 nM, 0.0831 nM and 3.23 nM, respectively. The EC50 amounted to 0.174 nM in assay [1], 0.0472 nM in assay [2] and 0.0189 µM at human GLP-1R [4] (setting [6]). For the same compound, at human GLP-1R [4], the “hGLP1R B-Arrestin2 % Top” value came to 47%.

As for `CC[C@H](C)[C@H](NC(=O)[C@H](CC(C)C)NC(=O)[C@H](Cc1ccc(O)cc1)NC(=O)[C@@H](CCC(=O)O)NC(=O)[C@@H](NC(=O)[C@H](Cc1ccccc1)NC(=O)[C@H](C)NC(=O)C(C)(C)NC(=O)[C@H](CCC(N)=O)NC(=O)[C@H](C)NC(=O)[C@H](CCCCNC(=O)COCCOCCNC(=O)COCCOCCNC(=O)CC[C@H](NC(=O)CCCCCCCCCCCCCCCCCCC(=O)O)C(=O)O)NC(=O)[C@H](CCCN)NC(=O)[C@H](CC(=O)O)NC(=O)[C@H](CC(C)C)NC(=O)[C@](C)(CC(C)C)NC(=O)[C@@H](NC(=O)[C@H](CO)NC(=O)[C@H](Cc1ccc(O)cc1)NC(=O)[C@H](CC(=O)O)NC(=O)[C@H](CO)NC(=O)[C@@H](NC(=O)[C@H](Cc1ccccc1)NC(=O)[C@@H](NC(=O)CNC(=O)[C@H](CCC(=O)O)NC(=O)C(C)(C)NC(=O)[C@H](N)Cc1ccc(O)cc1)[C@@H](C)O)[C@@H](C)O)[C@@H](C)CC)[C@@H](C)CC)C(=O)N[C@@H](CCC(=O)O)C(=O)NCC(=O)NCC(=O)N1CCC[C@H]1C(=O)N[C@@H](CO)C(=O)N[C@@H](CO)C(=O)NCC(=O)N[C@@H](C)C(=O)N1CCC[C@H]1C(=O)N1CCC[C@H]1C(=O)N1CCC[C@H]1C(=O)N[C@@H](CO)C(N)=O` [Example 357], the figures for the Ki on human Gcg receptor, on human GIP receptor and at human GLP-1R [3] were above 977 nM, 0.316 nM and 7.02 nM, respectively. Also, the EC50 in assay [1] was 0.181 nM; in assay [2], 0.384 nM; on human GLP-1R [4] (setting [6]) it was 0.118 µM. Besides, the “hGLP1R B-Arrestin2 % Top” value on human GLP-1R [4] was 18.2%.

One may read the Ki as the equilibrium dissociation constant of an inhibitor or competing ligand from its target. A word on the EC50: it is the concentration that produces a half-maximal response.
